Consider 5 compounds from ChEMBL document CHEMBL4052649, “Structure-activity relationships for flavone interactions with amyloid β reveal a novel anti-aggregatory and neuroprotective effect of 2',3',4'-trihydroxyflavone (2-D08)” (Bioorg Med Chem, 2017).

Activity calls are given as the source filed them. The rule behind the calls is not given here.

For data set [1], the target named is Amyloid-beta precursor protein (Homo sapiens) (UniProt P05067). The data set can be described thus: Inhibition of human amyloid beta (1 to 42) assessed as neuroprotective activity at 2 uM of amyloid beta (1 to 42)-induced toxicity in rat PC12 cells by measuring reduction in cell viability at 10 to 50 uM incubated 15 mins prior to amyloid beta (1 to 42) addition measured after 48 hrs by MTT assay. It counts as cell-based. A general note: Formazan colour is commonly taken as a measure of viable cells.

For data set [2] the target is unchanged. The data set can be described thus: Inhibition of human amyloid beta (1 to 42) fibrillisation in cell-free solution at 100 uM measured every 10 mins up to 48 hrs by Thioflavin T based fluorescence assay.
Data set [3] has the same target. The data set can be described thus: Inhibition of human amyloid beta (1 to 42) assessed as reduction in fibrillisation AUC in cell-free solution at 100 uM measured every 10 mins for 48 hrs by Thioflavin T based fluorescence assay.
For data set [4] the target is unchanged. The data set can be described thus: Inhibition of human amyloid beta (1 to 42) assessed as neuroprotective activity at 2 uM of amyloid beta (1 to 42)-induced toxicity in rat PC12 cells by measuring reduction in cell viability at 100 uM incubated 15 mins prior to amyloid beta (1 to 42) addition measured after 48 hrs by MTT assay. It counts as cell-based.
For data set [5] the target is unchanged. Description: Inhibition of human amyloid beta (1 to 42) aggregation assessed as loosely attached/thin fibrils at 100 uM after 48 hrs by transmission electron microscopic analysis.
For data set [6] the target is unchanged. The data set can be described thus: Inhibition of human amyloid beta (1 to 42) assessed as neuroprotective activity up to 2 uM of amyloid beta (1 to 42)-induced toxicity in rat PC12 cells by measuring reduction in cell viability at 100 uM incubated 15 mins prior to amyloid beta (1 to 42) addition measured after 48 hrs by MTT assay. In kind it is cell-based.

Data set [7] shares this target. The data set can be described thus: Inhibition of human amyloid beta (1 to 42) aggregation assessed as reduction in fibril formation at 100 uM after 48 hrs by transmission electron microscopic analysis.
Data set [8] shares this target. The data set can be described thus: Inhibition of human amyloid beta (1 to 42) assessed as neuroprotective activity at 2 uM of amyloid beta (1 to 42)-induced toxicity in rat PC12 cells by measuring reduction in cell viability incubated 15 mins prior to amyloid beta (1 to 42) addition measured after 48 hrs by MTT assay. In kind it is cell-based.
Data set [9] shares this target. The data set can be described thus: Inhibition of human amyloid beta (1 to 42) aggregation at 100 uM after 48 hrs by transmission electron microscopic analysis.
In data set [10] the test system is PC-12. Description: Cytotoxicity against rat PC12 cells assessed as reduction in cell viability at 100 uM after 48 hrs in presence of 0.1 uM amyloid beta (1 to 42) by MTT assay. In kind it is cell-based. The following applies: pc-12, 48 h.
The target of data set [11] is Amyloid-beta precursor protein (Homo sapiens) (UniProt P05067). The data set can be described thus: Inhibition of human amyloid beta (1 to 42) fibrillisation in cell-free solution at 100 uM measured up to 16 hrs by Thioflavin T based fluorescence assay.
The target is the same in data set [12]. Description: Inhibition of human amyloid beta (1 to 42) assessed as neuroprotective activity up to 1 uM of amyloid beta (1 to 42)-induced toxicity in rat PC12 cells by measuring reduction in cell viability at 100 uM incubated 15 mins prior to amyloid beta (1 to 42) addition measured after 48 hrs by MTT assay. It counts as cell-based.
The target is the same in data set [13]. Description: Inhibition of human amyloid beta (1 to 42) aggregation assessed as increase in preponderance of fibril meshwork formation at 100 uM after 48 hrs by transmission electron microscopic analysis.
Data set [14] deals with PC-12. Description: Cytotoxicity against rat PC12 cells assessed as reduction in cell viability at 100 uM after 48 hrs by MTT assay. The following applies: pc-12, 48 h. It counts as cell-based.
The target of data set [15] is Amyloid-beta precursor protein (Homo sapiens) (UniProt P05067). Description: Inhibition of human amyloid beta (1 to 42) assessed as neuroprotective activity against amyloid beta (1 to 42)-induced toxicity in rat PC12 cells by measuring reduction in cell viability at 50 to 100 uM incubated 15 mins prior to amyloid beta (1 to 42) addition measured after 48 hrs by MTT assay. It counts as cell-based.

Data set [16] concerns PC-12. The data set can be described thus: Cytotoxicity against rat PC12 cells assessed as reduction in cell viability at 100 uM after 48 hrs in presence of up to 2 uM amyloid beta (1 to 42) by MTT assay. The note with it: pc-12, 48 h. In kind it is cell-based.
Data set [17] deals with Amyloid-beta precursor protein (Homo sapiens) (UniProt P05067). Description: Inhibition of human amyloid beta (1 to 42) assessed as neuroprotective activity against amyloid beta (1 to 42)-induced toxicity in rat PC12 cells by measuring reduction in cell viability at 10 uM incubated 15 mins prior to amyloid beta (1 to 42) addition measured after 48 hrs by MTT assay. In kind it is cell-based.

Chain of Amyloid-beta precursor protein (Homo sapiens) (P05067 whole entry): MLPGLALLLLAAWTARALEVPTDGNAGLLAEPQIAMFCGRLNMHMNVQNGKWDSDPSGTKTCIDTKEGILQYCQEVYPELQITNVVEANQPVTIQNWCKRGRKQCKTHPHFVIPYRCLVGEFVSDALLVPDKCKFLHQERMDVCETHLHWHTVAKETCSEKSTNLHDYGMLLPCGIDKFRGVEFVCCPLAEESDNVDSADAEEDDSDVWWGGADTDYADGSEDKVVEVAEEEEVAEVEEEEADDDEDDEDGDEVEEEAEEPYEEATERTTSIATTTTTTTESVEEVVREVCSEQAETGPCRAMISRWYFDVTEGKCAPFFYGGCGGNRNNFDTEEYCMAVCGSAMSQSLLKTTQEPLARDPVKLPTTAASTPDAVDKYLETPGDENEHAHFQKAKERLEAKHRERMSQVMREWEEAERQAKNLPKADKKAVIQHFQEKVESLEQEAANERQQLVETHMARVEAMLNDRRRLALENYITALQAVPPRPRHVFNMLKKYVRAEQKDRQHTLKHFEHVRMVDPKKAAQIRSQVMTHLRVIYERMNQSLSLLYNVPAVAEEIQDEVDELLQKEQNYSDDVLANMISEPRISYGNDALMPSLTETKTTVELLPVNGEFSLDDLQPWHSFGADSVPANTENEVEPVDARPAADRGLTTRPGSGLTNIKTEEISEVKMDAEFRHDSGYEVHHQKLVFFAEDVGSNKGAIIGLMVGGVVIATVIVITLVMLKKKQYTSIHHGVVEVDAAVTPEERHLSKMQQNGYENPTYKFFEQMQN

Regarding `COc1c(-c2ccc(O)c(O)c2)oc2c(O)c(O)ccc2c1=O`, the inhibition entry in data set [1], in data set [2], in data set [3], in data set [5] and in [6] was “Active” throughout. In data set [4], the inhibition result is “inactive”.
As for `O=c1cc(-c2ccc(O)c(O)c2O)oc2ccccc12`, the inhibition result in data set [7], in data set [2], in data set [3], in data set [9] and in data set [6] was “Active” each time. In addition, in data set [8], the inhibition result was “Dose-dependent effect”.
As to `COc1cc(-c2cc(=O)c3c(O)c(OC)c(O)cc3o2)ccc1O` [JACEOSIDINE], in the data set with PC-12 [10], the Activity entry was “Toxic”. The inhibition entry in data set [11] and in data set [9] was “Active” in each case. For the same compound, the inhibition entry in data set [12] and in data set [3] was “inactive” in each case.
On to `COc1ccc(-c2cc(=O)c3c(OC)c(OC)c(OC)c(OC)c3o2)cc1OC` [NOBILETIN], for which the Activity entry in the data set on PC-12 [10] was “Toxic”. Besides, the inhibition result in [11], in [12], in data set [13] and in [3] was “inactive” each time.
Take `O=c1c(O)c(-c2ccc(O)c(O)c2)oc2cc(O)cc(O)c12` [QUERCETIN]: the figures for the Activity in the data set on PC-12 [14] and in the data set with PC-12 [16] were 25% and “Non-Toxic”, respectively. Also, the inhibition result in data set [15] and in data set [6] was “inactive” each time. Further, the inhibition entry in data set [2], in [17], in [3] and in [5] was “Active” each time.
